Assay results taken from publication PMC12274840 (The Journal of Biological Chemistry, 2025).
In brackets after ≈: the same amount, converted by molar mass. Read-outs that look alike come from different tables or passages of the source.

Tests used:
Format in all cases: cell-based
[1] = system: E. coli KA797 cells carrying pUK21 with NmcA (pelB/Sec); assay: microbe, parasite or virus in culture; details: Escherichia coli, antibiotic alone
[2] = system: E. coli KA797 cells carrying KPC-2 position 105 library; details: selection with labelled antibiotic
[3] = system: E. coli KA797 cells carrying TEM-1 position 105 library; details: for Fi MEM AVG: average of replicates
[4] = KPC-2 AA 105 = Trp (WT, reference)

## C[C@@H](O)[C@H]1C(=O)N2C(C(=O)O)=C(S[C@@H]3CN[C@H](C(=O)N(C)C)C3)[C@H](C)[C@H]12 [meropenem]
[1]
  MIC: 1.6 µg/mL (≈ 4.17 µM)
[2]; KPC-2 AA 105 = Ala
  Fi (relative fitness), Replicate 1: 0.581
  Fi AVG (average fitness of replicates): 0.217
[2]; KPC-2 AA 105 = Arg
  Fi (relative fitness), Replicate 1: 0.240
  Fi AVG (average fitness of replicates): 0.280
  Significance of average fitness: +
[2]; KPC-2 AA 105 = Asn
  Fi (relative fitness), Replicate 1: 0.449
  Fi AVG (average fitness of replicates): 0.201
[2]; KPC-2 AA 105 = Asp
  Fi (relative fitness), Replicate 1: -0.690
  Fi AVG (average fitness of replicates): -0.489
[2]; KPC-2 AA 105 = Cys
  Fi (relative fitness), Replicate 1: -0.271
  Fi AVG (average fitness of replicates): -0.750
  Significance of average fitness: -
[2]; KPC-2 AA 105 = Gln
  Fi (relative fitness), Replicate 1: -0.624
  Fi AVG (average fitness of replicates): -1.307
  Significance of average fitness: -
[2]; KPC-2 AA 105 = Glu
  Fi (relative fitness), Replicate 1: -0.509
  Fi AVG (average fitness of replicates): -0.226
[2]; KPC-2 AA 105 = Gly
  Fi AVG (average fitness of replicates): -0.037
[2]; KPC-2 AA 105 = His
  Fi (relative fitness), Replicate 1: -1.077
  Fi AVG (average fitness of replicates): -0.525
[2]; KPC-2 AA 105 = Ile
  Fi (relative fitness), Replicate 1: 0.107
  Fi AVG (average fitness of replicates): 0.391
  Significance of average fitness: +
[2]; KPC-2 AA 105 = Leu
  Fi (relative fitness), Replicate 1: -0.731
  Fi AVG (average fitness of replicates): -0.210
[2]; KPC-2 AA 105 = Lys
  Fi (relative fitness), Replicate 1: 0.268
  Fi AVG (average fitness of replicates): -0.089
[2]; KPC-2 AA 105 = Met
  Fi (relative fitness), Replicate 1: -1.083
  Fi AVG (average fitness of replicates): -0.791
[2]; KPC-2 AA 105 = Phe
  Fi (relative fitness), Replicate 1: -0.159
  Fi AVG (average fitness of replicates): 0.248
[2]; KPC-2 AA 105 = Pro
  Fi (relative fitness), Replicate 1: -0.148
  Fi AVG (average fitness of replicates): -1.195
  Significance of average fitness: -
[2]; KPC-2 AA 105 = Ser
  Fi (relative fitness), Replicate 1: 0.279
  Fi AVG (average fitness of replicates): -0.239
[2]; KPC-2 AA 105 = Thr
  Fi AVG (average fitness of replicates): -0.051
[2]; [4]
  Fi (relative fitness), Replicate 1: 0.000
  Fi AVG (average fitness of replicates): 0.000
[2]; KPC-2 AA 105 = Tyr
  Fi (relative fitness), Replicate 1: 0.109
  Fi AVG (average fitness of replicates): -0.474
[2]; KPC-2 AA 105 = Val
  Fi (relative fitness), Replicate 1: -1.754
  Fi AVG (average fitness of replicates): -0.973
[2]; KPC-2 WT (Trp 105), replicate 1
  WT abs Fi 1 (absolute fitness): 0.081
[2]; KPC-2 WT (Trp 105), replicate 2
  WT abs Fi 2 (absolute fitness): -0.069
[2]; KPC-2 WT (Trp 105), replicate 3
  WT abs Fi 3 (absolute fitness): 0.298
[3]; AA 105 Ala
  Fi MEM AVG: 0.062
[3]; AA 105 Ala, replicate 1
  Fi MEM 1: 0.046
[3]; AA 105 Ala, replicate 2
  Fi MEM 2: 0.488
[3]; AA 105 Ala, replicate 3
  Fi MEM 3: -0.350
[3]; AA 105 Arg
  Fi MEM AVG: 0.048
[3]; AA 105 Arg, replicate 1
  Fi MEM 1: 0.163
[3]; AA 105 Arg, replicate 2
  Fi MEM 2: 0.269
[3]; AA 105 Arg, replicate 3
  Fi MEM 3: -0.287
[3]; AA 105 Asn
  Fi MEM AVG: -0.031
[3]; AA 105 Asn, replicate 1
  Fi MEM 1: -0.022
[3]; AA 105 Asn, replicate 2
  Fi MEM 2: 0.493
[3]; AA 105 Asn, replicate 3
  Fi MEM 3: -0.563
[3]; AA 105 Asp
  Fi MEM AVG: -0.366
[3]; AA 105 Asp, replicate 1
  Fi MEM 1: -1.030
[3]; AA 105 Asp, replicate 2
  Fi MEM 2: 0.356
[3]; AA 105 Asp, replicate 3
  Fi MEM 3: -0.424
[3]; AA 105 Cys
  Fi MEM AVG: 0.031
[3]; AA 105 Cys, replicate 1
  Fi MEM 1: 0.333
[3]; AA 105 Cys, replicate 2
  Fi MEM 2: 0.230
[3]; AA 105 Cys, replicate 3
  Fi MEM 3: -0.470
[3]; AA 105 Gln
  Fi MEM AVG: -0.069
[3]; AA 105 Gln, replicate 1
  Fi MEM 1: -0.210
[3]; AA 105 Gln, replicate 2
  Fi MEM 2: 0.084
[3]; AA 105 Gln, replicate 3
  Fi MEM 3: -0.080
[3]; AA 105 Glu
  Fi MEM AVG: -0.063
[3]; AA 105 Glu, replicate 1
  Fi MEM 1: -0.084
[3]; AA 105 Glu, replicate 2
  Fi MEM 2: 0.140
[3]; AA 105 Glu, replicate 3
  Fi MEM 3: -0.245
[3]; AA 105 Gly
  Fi MEM AVG: -0.130
[3]; AA 105 Gly, replicate 1
  Fi MEM 1: -0.195
[3]; AA 105 Gly, replicate 2
  Fi MEM 2: 0.032
[3]; AA 105 Gly, replicate 3
  Fi MEM 3: -0.226
[3]; AA 105 His
  Fi MEM AVG: -0.172
[3]; AA 105 His, replicate 1
  Fi MEM 1: -0.391
[3]; AA 105 His, replicate 2
  Fi MEM 2: 0.351
[3]; AA 105 His, replicate 3
  Fi MEM 3: -0.475
[3]; AA 105 Ile
  Fi MEM AVG: 0.078
[3]; AA 105 Ile, replicate 1
  Fi MEM 1: 0.231
[3]; AA 105 Ile, replicate 2
  Fi MEM 2: 0.143
[3]; AA 105 Ile, replicate 3
  Fi MEM 3: -0.140
[3]; AA 105 Leu
  Fi MEM AVG: -0.036
[3]; AA 105 Leu, replicate 1
  Fi MEM 1: -0.102
[3]; AA 105 Leu, replicate 2
  Fi MEM 2: 0.170
[3]; AA 105 Leu, replicate 3
  Fi MEM 3: -0.177
[3]; AA 105 Lys
  Fi MEM AVG: -0.052
[3]; AA 105 Lys, replicate 1
  Fi MEM 1: -0.122
[3]; AA 105 Lys, replicate 2
  Fi MEM 2: 0.122
[3]; AA 105 Lys, replicate 3
  Fi MEM 3: -0.155
[3]; AA 105 Met
  Fi MEM AVG: -0.379
[3]; AA 105 Met, replicate 1
  Fi MEM 1: -0.840
[3]; AA 105 Met, replicate 2
  Fi MEM 2: 0.139
[3]; AA 105 Met, replicate 3
  Fi MEM 3: -0.436
[3]; AA 105 Phe
  Fi MEM AVG: -0.175
[3]; AA 105 Phe, replicate 1
  Fi MEM 1: 0.171
[3]; AA 105 Phe, replicate 2
  Fi MEM 2: -0.315
[3]; AA 105 Phe, replicate 3
  Fi MEM 3: -0.381
[3]; AA 105 Pro
  Fi MEM AVG: -0.026
[3]; AA 105 Pro, replicate 1
  Fi MEM 1: 0.015
[3]; AA 105 Pro, replicate 2
  Fi MEM 2: 0.091
[3]; AA 105 Pro, replicate 3
  Fi MEM 3: -0.184
[3]; AA 105 Ser
  Fi MEM AVG: -0.010
[3]; AA 105 Ser, replicate 1
  Fi MEM 1: 0.139
[3]; AA 105 Ser, replicate 2
  Fi MEM 2: 0.033
[3]; AA 105 Ser, replicate 3
  Fi MEM 3: -0.203
[3]; AA 105 Thr
  Fi MEM AVG: -0.084
[3]; AA 105 Thr, replicate 1
  Fi MEM 1: -0.289
[3]; AA 105 Thr, replicate 2
  Fi MEM 2: 0.235
[3]; AA 105 Thr, replicate 3
  Fi MEM 3: -0.199
[3]; AA 105 Trp
  Fi MEM AVG: -0.176
[3]; AA 105 Trp, replicate 1
  Fi MEM 1: -0.657
[3]; AA 105 Trp, replicate 2
  Fi MEM 2: 0.184
[3]; AA 105 Trp, replicate 3
  Fi MEM 3: -0.056
[3]; AA 105 Tyr
  Fi MEM AVG: 0.000
[3]; AA 105 Tyr, replicate 1
  Fi MEM 1: 0.000
[3]; AA 105 Tyr, replicate 2
  Fi MEM 2: 0.000
[3]; AA 105 Tyr, replicate 3
  Fi MEM 3: 0.000
[3]; AA 105 Val
  Fi MEM AVG: -0.088
[3]; AA 105 Val, replicate 1
  Fi MEM 1: -0.115
[3]; AA 105 Val, replicate 2
  Fi MEM 2: 0.193
[3]; AA 105 Val, replicate 3
  Fi MEM 3: -0.342
[3]; absolute fitness of TEM-1 WT, MEM, replicate 1
  WT abs Fi 1: 0.006
[3]; absolute fitness of TEM-1 WT, MEM, replicate 2
  WT abs Fi 2: -0.204
[3]; absolute fitness of TEM-1 WT, MEM, replicate 3
  WT abs Fi 3: 0.439
